Source: article PMC10463274 (2023)

Legend:
[1] = system: phenylalanine aptamer (DNA, aptamer) CGACCGCGTTTCCCAAGAAAGCAAGTATTGGTTGGTCG; test: FFT-EIS electrochemical aptamer-based sensor; conditions: in vitro calibration; details only in supporting information
[2] = system: vancomycin aptamer (DNA, aptamer) CGAGGGTACCGCAATAGTACTTATTGTTCGCCTATTGTGGGTCGG; test: FFT-EIS electrochemical aptamer-based sensor (ket titration); conditions: whole bovine blood, 37 °C; apparent; error is 95% confidence interval; Hill–Langmuir fit

N[C@@H](Cc1ccccc1)C(=O)O
binding [1]: yes

CN[C@H](CC(C)C)C(=O)N[C@H]1C(=O)N[C@@H](CC(N)=O)C(=O)N[C@H]2C(=O)N[C@H]3C(=O)N[C@H](C(=O)N[C@H](C(=O)O)c4cc(O)cc(O)c4-c4cc3ccc4O)[C@H](O)c3ccc(c(Cl)c3)Oc3cc2cc(c3O[C@@H]2O[C@H](CO)[C@@H](O)[C@H](O)[C@H]2O[C@H]2C[C@](C)(N)[C@H](O)[C@H](C)O2)Oc2ccc(cc2Cl)[C@H]1O
KD [2]: 144 ± 31 µM
